Reference: patent US8575091B1, “Amylin analogues and pharmaceutical compositions thereof” (Novo Nordisk A/S, priority 2012, dated 2013)
pEC50, pIC50: −log10 of the molar value. Numbered stars: 1 amine (or outer) side, 2 acyl side, 3 side chain; on linkers, the order of the positions; unused ones are H or OH. Bridge positions count the residues as written; N and C are the ends. Side chains are listed from the residue outwards. Peptide text beside a SMILES is read from it. * marks the point of attachment. C20 diacid = O=C(O)CCCCCCCCCCCCCCCCCCC(=O)*; γGlu = O=C(O)[C@H](CCC(=O)[*:2])N[*:1]

Assays:
[1] = target: T1, human amylin receptor (amylin 3(a) receptor: human calcitonin receptor + RAMP-3) (Homo sapiens, UniProt O60896+P30988); experiment: Assay (II)a functional assay, human amylin receptor (CRE luciferase, BHK cells); type: cell-based; settings: for pEC50: functional assay, human amylin receptor, read-out: hAmylin-R funct. EC50
T1 construct: expressed in transfected cells
T1 sequence (P30988 25-474): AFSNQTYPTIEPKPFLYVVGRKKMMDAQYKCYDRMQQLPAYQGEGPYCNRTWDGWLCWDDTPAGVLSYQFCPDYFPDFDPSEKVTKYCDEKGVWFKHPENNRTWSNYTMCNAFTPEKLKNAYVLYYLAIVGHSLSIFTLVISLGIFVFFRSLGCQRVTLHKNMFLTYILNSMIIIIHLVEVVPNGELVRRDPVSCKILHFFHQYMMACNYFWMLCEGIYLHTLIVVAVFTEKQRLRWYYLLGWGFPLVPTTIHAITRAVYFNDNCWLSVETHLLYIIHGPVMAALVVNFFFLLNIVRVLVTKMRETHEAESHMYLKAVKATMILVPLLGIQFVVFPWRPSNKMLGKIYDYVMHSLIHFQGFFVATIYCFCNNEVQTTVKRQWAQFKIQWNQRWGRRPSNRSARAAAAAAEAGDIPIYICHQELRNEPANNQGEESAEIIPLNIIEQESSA
T1 sequence (O60896 24-148 partner): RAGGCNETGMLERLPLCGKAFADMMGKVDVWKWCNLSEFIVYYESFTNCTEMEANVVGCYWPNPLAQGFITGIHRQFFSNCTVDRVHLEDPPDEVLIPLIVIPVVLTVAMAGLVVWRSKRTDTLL

[2] = target: T2, human calcitonin receptor (Homo sapiens, UniProt P30988); experiment: Assay (VII) binding to the human calcitonin receptor (SPA, 125I-Calcitonin); settings: read-out: hCTR bind IC50;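 further: cell membranes coupled to SPA beads, competitive displacement read by scintillation counting, IC50 derived from a one-site competition fit as a measure of receptor affinity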
T2 construct: expressed in transfected cells
T2 sequence (P30988 25-474): T1 sequence (P30988 25-474)

[3] = target: T2, human calcitonin receptor; experiment: Assay (II)a functional assay, human calcitonin receptor (CRE luciferase, BHK cells);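 further: luminescence from a CRE-driven luciferase reporter, read by single photon counting after cells were exposed to test samples for 3 h at 37 °C under 5% CO2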; type: cell-based; settings: read-out: hCTR funct. EC50
human amylin receptor = target: T3, human amylin receptor (Homo sapiens, UniProt O60896+P30988); experiment: Assay (V) binding to the human amylin receptor (SPA, 125I-rat amylin); settings: human amylin receptor membranes, SPA; read-out: hAmylin-R bind IC50
T3 construct: expressed in transfected cells
T3 sequence (P30988 25-474): T1 sequence (P30988 25-474)
T3 sequence (O60896 24-148 partner): T1 sequence (O60896 24-148 partner)
Procedure, shortened: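 SPA competition binding on membranes from Amylin 3(a)/CRE-luc cells, 35 ng/μL membranes with 0.05 mg/well beads. Buffer 50 mM Hepes pH 7.4, 1 mM CaCl2, 5 mM MgCl2, 0.1% OA, 0.02% Tween20. IC50 from one-site competition fit as affinity measure.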

[4] = Table 6, human functional selectivity (hCTR EC50 / hAmylin-R EC50)

Row | Compound | pEC50 [1] | pIC50 [2] | pEC50 [3] | pIC50 (human amylin receptor) | Ratio hCT/hAmylin funct. [1, 4] | Ratio hCT/hAmylin funct. ([1]; Table 6a, human functional selectivity (hCTR EC50 / hAmylin-R EC50), at least 5) | Ratio hCT/hAmylin funct. ([1]; Table 6i, hCTR funct. EC50 / hAmylin-R funct. EC50) | Ratio hCT/hAmylin funct. ([1]; hCTR funct. EC50 divided by hAmylin-R funct. EC50)
1 | CC[C@H](C)[C@H](NC(=O)[C@H](C)NC(=O)CNC(=O)[C@H](Cc1ccccc1)NC(=O)[C@H](CC(N)=O)NC(=O)[C@@H]1CCCN1C(=O)[C@H](CO)NC(=O)[C@H](CO)NC(=O)[C@H](Cc1c[nH]cn1)NC(=O)[C@H](CCCNC(=N)N)NC(=O)[C@H](CC(C)C)NC(=O)[C@H](Cc1ccccc1)NC(=O)[C@H](CC(N)=O)NC(=O)[C@H](C)NC(=O)[C@H](CC(C)C)NC(=O)[C@H](CCCNC(=N)N)NC(=O)[C@H](CCC(N)=O)NC(=O)[C@@H](NC(=O)[C@H](C)NC(=O)[C@@H]1CSSC[C@H](NC(=O)[C@@H](N)CCCCNC(=O)CC[C@H](NC(=O)CCCCCCCCCCCCCCC(=O)O)C(=O)O)C(=O)N[C@@H](CC(N)=O)C(=O)N[C@@H]([C@@H](C)O)C(=O)N[C@@H](C)C(=O)N[C@@H]([C@@H](C)O)C(=O)N1)[C@@H](C)O)C(=O)N1CCC[C@H]1C(=O)N[C@@H](CO)C(=O)N[C@@H](CO)C(=O)N[C@H](C(=O)N[C@@H](CC(N)=O)C(=O)N[C@H](C(=O)NCC(=O)N[C@@H](Cc1c[nH]cn1)C(=O)N[C@@H](CC(N)=O)C(=O)N[C@H](C(=O)N[C@@H](Cc1ccc(O)cc1)C(N)=O)[C@@H](C)O)C(C)C)[C@@H](C)O [Example 111] | 10.47 | 7.97 | 8.65 | 9.24 |  |  |  | 
2 | CC[C@H](C)[C@H](NC(=O)[C@H](C)NC(=O)CNC(=O)[C@H](Cc1ccccc1)NC(=O)[C@H](CC(N)=O)NC(=O)[C@@H]1CCCN1C(=O)[C@H](CO)NC(=O)[C@H](CO)NC(=O)[C@H](Cc1c[nH]cn1)NC(=O)[C@H](CCCNC(=N)N)NC(=O)[C@H](CC(C)C)NC(=O)[C@H](Cc1ccccc1)NC(=O)[C@H](CC(N)=O)NC(=O)[C@H](C)NC(=O)[C@H](CC(C)C)NC(=O)[C@H](CCCNC(=N)N)NC(=O)[C@H](CCC(N)=O)NC(=O)[C@@H](NC(=O)[C@H](C)NC(=O)[C@@H]1CSSC[C@H](NC(=O)[C@@H](N)CCCCNC(=O)CC[C@H](NC(=O)CCCCCCCCCCCCCCCCC(=O)O)C(=O)O)C(=O)N[C@@H](CC(N)=O)C(=O)N[C@@H]([C@@H](C)O)C(=O)N[C@@H](C)C(=O)N[C@@H]([C@@H](C)O)C(=O)N1)[C@@H](C)O)C(=O)N1CCC[C@H]1C(=O)N[C@@H](CO)C(=O)N[C@@H](CO)C(=O)N[C@H](C(=O)N[C@@H](CC(N)=O)C(=O)N[C@H](C(=O)NCC(=O)N[C@@H](Cc1c[nH]cn1)C(=O)N[C@@H](CC(N)=O)C(=O)N[C@H](C(=O)N[C@@H](Cc1ccc(O)cc1)C(N)=O)[C@@H](C)O)C(C)C)[C@@H](C)O [Example 113] | 10.02 | 7.64 | 8.23 | 9.42 |  |  |  | 
3 | CC[C@H](C)[C@H](NC(=O)[C@H](C)NC(=O)CNC(=O)[C@H](Cc1ccccc1)NC(=O)[C@H](CC(N)=O)NC(=O)[C@@H]1CCCN1C(=O)[C@H](CO)NC(=O)[C@H](CO)NC(=O)[C@H](Cc1c[nH]cn1)NC(=O)[C@H](CCCNC(=N)N)NC(=O)[C@H](CC(C)C)NC(=O)[C@H](Cc1ccccc1)NC(=O)[C@H](Cc1c[nH]cn1)NC(=O)[C@H](C)NC(=O)[C@H](CC(C)C)NC(=O)[C@H](CCCNC(=N)N)NC(=O)[C@H](CCC(N)=O)NC(=O)[C@@H](NC(=O)[C@H](C)NC(=O)[C@@H]1CSSC[C@H](NC(=O)[C@@H](N)CCCCNC(=O)CC[C@H](NC(=O)CCCCCCCCCCCCCCCCCCC(=O)O)C(=O)O)C(=O)N[C@@H](CC(N)=O)C(=O)N[C@@H]([C@@H](C)O)C(=O)N[C@@H](C)C(=O)N[C@@H]([C@@H](C)O)C(=O)N1)[C@@H](C)O)C(=O)N1CCC[C@H]1C(=O)N[C@@H](CO)C(=O)N[C@@H](CO)C(=O)N[C@H](C(=O)N1CCC[C@H]1C(=O)N[C@H](C(=O)NCC(=O)N1CCC[C@H]1C(=O)N[C@@H](CC(N)=O)C(=O)N[C@H](C(=O)N[C@@H](Cc1ccc(O)cc1)C(N)=O)[C@@H](C)O)C(C)C)[C@@H](C)O [Example 116] (H-K([γGlu-C20 diacid])CNTATCATQRLAHFLRHSSPNFGAIPSSTPVGPNTY-NH2; disulfide 2-7) | 10.15 | 8.69 | 9.46 | 10.09 | 4.9 |  |  | 

Now from value to molecule:

Row | pEC50 [1] | pIC50 [2] | pEC50 [3] | pIC50 (human amylin receptor) | Ratio hCT/hAmylin funct. [1, 4] | Ratio hCT/hAmylin funct. ([1]; Table 6a, human functional selectivity (hCTR EC50 / hAmylin-R EC50), at least 5) | Ratio hCT/hAmylin funct. ([1]; Table 6i, hCTR funct. EC50 / hAmylin-R funct. EC50) | Ratio hCT/hAmylin funct. ([1]; hCTR funct. EC50 divided by hAmylin-R funct. EC50) | Compound
4 | 9.35 | 7.82 | 8.15 | 9.28 |  |  |  |  | CC[C@H](C)[C@H](NC(=O)[C@H](C)NC(=O)CNC(=O)[C@H](Cc1ccccc1)NC(=O)[C@H](CC(N)=O)NC(=O)[C@@H]1CCCN1C(=O)[C@H](CO)NC(=O)[C@H](CO)NC(=O)[C@H](Cc1c[nH]cn1)NC(=O)[C@H](CCCNC(=N)N)NC(=O)[C@H](CC(C)C)NC(=O)[C@H](Cc1ccccc1)NC(=O)[C@H](CCC(=O)O)NC(=O)[C@H](C)NC(=O)[C@H](CC(C)C)NC(=O)[C@H](CCCNC(=N)N)NC(=O)[C@H](CCC(N)=O)NC(=O)[C@@H](NC(=O)[C@H](C)NC(=O)[C@@H]1CSSC[C@H](NC(=O)[C@@H](N)CCCCNC(=O)CC[C@H](NC(=O)CC[C@H](NC(=O)CCCCCCCCCCCCCCCCCCC(=O)O)C(=O)O)C(=O)O)C(=O)N[C@@H](CC(N)=O)C(=O)N[C@@H]([C@@H](C)O)C(=O)N[C@@H](C)C(=O)N[C@@H]([C@@H](C)O)C(=O)N1)[C@@H](C)O)C(=O)N1CCC[C@H]1C(=O)N[C@@H](CO)C(=O)N[C@@H](CO)C(=O)N[C@H](C(=O)N[C@@H](CC(N)=O)C(=O)N[C@H](C(=O)NCC(=O)N[C@@H](Cc1c[nH]cn1)C(=O)N[C@@H](CCC(=O)O)C(=O)N[C@H](C(=O)N[C@@H](Cc1ccc(O)cc1)C(N)=O)[C@@H](C)O)C(C)C)[C@@H](C)O [Example 104] (H-K([γGlu-γGlu-C20 diacid])CNTATCATQRLAEFLRHSSPNFGAIPSSTNVGHETY-NH2; disulfide 2-7)
5 | 10.55 | 7.61 | 8.96 | 8.98 |  |  |  |  | CC[C@H](C)[C@H](NC(=O)[C@H](C)NC(=O)CNC(=O)[C@H](Cc1ccccc1)NC(=O)[C@H](CC(N)=O)NC(=O)[C@@H]1CCCN1C(=O)[C@H](CO)NC(=O)[C@H](CO)NC(=O)[C@H](Cc1c[nH]cn1)NC(=O)[C@H](CCCNC(=N)N)NC(=O)[C@H](CC(C)C)NC(=O)[C@H](Cc1ccccc1)NC(=O)[C@H](CC(N)=O)NC(=O)[C@H](C)NC(=O)[C@H](CC(C)C)NC(=O)[C@H](CCCNC(=N)N)NC(=O)[C@H](CCC(N)=O)NC(=O)[C@@H](NC(=O)[C@H](C)NC(=O)[C@@H]1CSSC[C@H](NC(=O)[C@@H](N)CCCCNC(=O)CC[C@H](NC(=O)CCCCCCCCCCCCC(=O)O)C(=O)O)C(=O)N[C@@H](CC(N)=O)C(=O)N[C@@H]([C@@H](C)O)C(=O)N[C@@H](C)C(=O)N[C@@H]([C@@H](C)O)C(=O)N1)[C@@H](C)O)C(=O)N1CCC[C@H]1C(=O)N[C@@H](CO)C(=O)N[C@@H](CO)C(=O)N[C@H](C(=O)N[C@@H](CC(N)=O)C(=O)N[C@H](C(=O)NCC(=O)N[C@@H](Cc1c[nH]cn1)C(=O)N[C@@H](CC(N)=O)C(=O)N[C@H](C(=O)N[C@@H](Cc1ccc(O)cc1)C(N)=O)[C@@H](C)O)C(C)C)[C@@H](C)O [Example 112]
6 | 9.65 | 8.81 | 8.89 | 10.16 | 5.8 | 5.8 | 5.8 | 5.8 | CC[C@H](C)[C@H](NC(=O)[C@H](C)NC(=O)CNC(=O)[C@H](Cc1ccccc1)NC(=O)[C@H](CC(N)=O)NC(=O)[C@@H]1CCCN1C(=O)[C@H](CO)NC(=O)[C@H](CO)NC(=O)[C@H](Cc1c[nH]cn1)NC(=O)[C@H](CCCNC(=N)N)NC(=O)[C@H](CC(C)C)NC(=O)[C@H](Cc1ccccc1)NC(=O)[C@H](CCC(=O)O)NC(=O)[C@H](C)NC(=O)[C@H](CC(C)C)NC(=O)[C@H](CCCNC(=N)N)NC(=O)[C@H](CCC(N)=O)NC(=O)[C@@H](NC(=O)[C@H](C)NC(=O)[C@@H]1CSSC[C@H](NC(=O)[C@@H](N)CCCCNC(=O)CC[C@H](NC(=O)CC[C@H](NC(=O)CCCCCCCCCCCCCCCCCCC(=O)O)C(=O)O)C(=O)O)C(=O)N[C@@H](CC(N)=O)C(=O)N[C@@H]([C@@H](C)O)C(=O)N[C@@H](C)C(=O)N[C@@H]([C@@H](C)O)C(=O)N1)[C@@H](C)O)C(=O)N[C@@H](CC(C)C)C(=O)N[C@@H](CO)C(=O)N[C@@H](CO)C(=O)N[C@H](C(=O)N1CCC[C@H]1C(=O)N[C@H](C(=O)NCC(=O)N1CCC[C@H]1C(=O)N[C@@H](CCC(=O)O)C(=O)N[C@H](C(=O)N[C@@H](Cc1ccc(O)cc1)C(N)=O)[C@@H](C)O)C(C)C)[C@@H](C)O [Example 121] (H-K([γGlu-γGlu-C20 diacid])CNTATCATQRLAEFLRHSSPNFGAILSSTPVGPETY-NH2; disulfide 2-7)
